Test results reported in paper PMC11538350, “Synthetic studies on the tetrasubstituted D-ring of cystobactamids lead to potent terephthalic acid antibiotics” (Communications Chemistry, 2024).
In brackets after ≈: the same amount, converted by molar mass. Like-named read-outs stand apart in the source and are kept apart here.

Columns and labels:
[1] = test system: S. pneum. DSM-11865 (PRSP); assay: MIC assay; format: cell-based
Procedure: (§1) All cystobactamids were evaluated in MIC-assays on a panel of representative ESKAPE strains with focus on A. baumannii (Tables 1 and 2). Compared to our previous work[10],[17],[18], we specifically included more challenging test strains with known resistances against gyrase inhibitors.
(§2) 2.1 Materials and Methods
(§3) Strains were cultivated according to standard procedures. Bacterial cryo-cultures were
(§4) resuspended into fresh MHBII (cation adjusted) medium. The resuspension
(§5) assay plate (Corning, #3788).
(§6) in parallel as a positive control. […]

K. pneum. R-1525 = assay: MIC assay; format: cell-based
Procedure: as §1, §2, §3, §4, §5, §6

E. cloacae ATCC BAA-2468 = assay: MIC assay; format: cell-based
Procedure: as §1, §2, §3, §4, §5, §6

E. coli LM705 = assay: MIC assay; format: cell-based; conditions: Escherichia coli, LM705, read-out: MIC E. coli LM705
Procedure: as §1, §2, §3, §4, §5, §6

A. baum. R835 = assay: MIC assay; format: cell-based
Procedure: as §1, §2, §3, §4, §5, §6

E. coli ATCC-25922 = assay: MIC assay; format: cell-based; conditions: Escherichia coli
Procedure: as §1, §2, §3, §4, §5, §6

A. baum. CIP-107292 = assay: MIC assay; format: cell-based
Procedure: as §1, §2, §3, §4, §5, §6

A. baum. ATCC BAA-1710 = assay: MIC assay; format: cell-based
Procedure: as §1, §2, §3, §4, §5, §6

K. pneum. KP10581 = assay: MIC assay; format: cell-based
Procedure: as §1, §2, §3, §4, §5, §6

S. aur. ATCC-29213 = assay: MIC assay; format: cell-based; conditions: Staphylococcus aureus
Procedure: as §1, §2, §3, §4, §5, §6

E. ae. CIP 106754 = assay: MIC assay; format: cell-based, Enterobacter aerogenes; conditions: Klebsiella aerogenes, CIP106754, read-out: MIC E. ae. CIP 106754
Procedure: as §1, §2, §3, §4, §5, §6

[2] = for T1/2 PLASMA (H): human plasma; for T1/2 PLASMA (M): mouse plasma
Procedure: 2.1 Materials and Methods […]
Determination of in vitro ADME properties
7, 8, 11 and 42. All samples were analysed via HPLC -MS/MS.
HPLC-MS/MS analysis of cystobactamids
AB Sciex QTrap 6500plus mass spectrometer. LC conditions were as follows: column:
Samples were run under acidic
For plasma stability experiments, samples were procured from commercial sources.
Human plasma was obtained from Antibodies-online (catalog no. ABIN5706569), and mouse plasma was obtained from Tebubio (catalog no. D408-04-0050).
The methods were performed in accordance with relevant guidelines and regulations and approved by the Helmholtz Centre for Infection Research. […]

[3] = metabolic stability assay, human microsomes; conditions: second microsome column of Table S4, head prints (M); mouse and human microsomes
[4] = metabolic stability assay, mouse microsomes; conditions: Table S4
E. faec. DSM-17050 (VRE) = assay: MIC assay; format: cell-based, Enterococcus faecium
Procedure: as §1, §2, §3, §4, §5, §6

P. ae. PA14 = assay: MIC assay; format: cell-based; conditions: Pseudomonas aeruginosa
Procedure: as §1, §2, §3, §4, §5, §6

A. baum. DSM-30008 = assay: MIC assay; format: cell-based; conditions: Acinetobacter baumannii
Procedure: as §1, §2, §3, §4, §5, §6

A. baum. CIP-105742 = assay: MIC assay; format: cell-based
Procedure: as §1, §2, §3, §4, §5, §6

K. pneum. CIP-104298 = assay: MIC assay; format: cell-based; conditions: Klebsiella pneumoniae
Procedure: as §1, §2, §3, §4, §5, §6

P. ae. PA14ΔmexAB = assay: MIC assay; format: cell-based; conditions: Pseudomonas aeruginosa, read-out: MIC P. ae. PA14ΔmexAB
Procedure: as §1, §2, §3, §4, §5, §6

[5] = PK study in mice after intravenous administration; format: in vivo, CD-1 mice; conditions: male, plasma
Procedure: and approved by the Helmholtz Centre for Infection Research.
Germany), 4-weeks-old, were used. The animal studies were conducted in accordance […]
Verbraucherschutz und Lebensmittelsicherheit, Oldenburg, Germany.
Then, plasma was transferred into a new Eppendorf tube and stored at -80°C until analysis.
Bioanalysis of pharmacokinetic and pharmacodynamic samples […]
mouse plasma from CD-1 mice. Glipizide was used as an internal standard. In addition, […]
mixer. […] Supernatants were […]
transferred to standard HPLC-glass vials. Samples were analyzed using LC-MS/MS conditions as described above. Peaks of PK samples were quantified using the calibration curve using AB Sciex Multiquant Software 3.0. The accuracy of the calibration curve was determined using QCs independently prepared. PK parameters were determined using a non-compartmental analysis with PKSolver.23
Figure S1: Plasma concentration curves for cystobactamid 42. Error bars were determined via standard deviation of two cassette experiments per compound (n=2). […]
(1 picture or pasted object on this page, not shown here)

ESKAPE strains = assay: MIC-assays on a panel of representative ESKAPE strains, summary in words; format: cell-based; conditions: summary of the MIC tables
Procedure: as §1, §2, §3, §4, §5, §6

[6] = Streptococcus pneumoniae; read-out: MIC S. pneum. DSM-11865 (PRSP)
[7] = Klebsiella pneumoniae; read-out: MIC K. pneum. R-1525
[8] = Enterobacter cloacae, ATCCBAA2468; read-out: MIC E. cloacae ATCC BAA-2468
[9] = Acinetobacter baumannii; read-out: MIC A. baum. R835
[10] = ATCC25922, reference strain, read-out: MIC E. coli ATCC-25922
[11] = Acinetobacter baumannii, CIP107292; read-out: MIC A. baum. CIP-107292
[12] = Acinetobacter baumannii, ATCCBAA1710; read-out: MIC A. baum. ATCC BAA-1710
[13] = Klebsiella pneumoniae; read-out: MIC K. pneum. KP10581
[14] = ATCC29213, reference strain, read-out: MIC S. aur. ATCC-29213
[15] = Enterococcus; read-out: MIC E. faec. DSM-17050 (VRE)
[16] = PA14, reference strain, read-out: MIC P. ae. PA14
[17] = DSM30008, reference strain, read-out: MIC A. baum. DSM-30008
[18] = Acinetobacter baumannii, CIP105742; read-out: MIC A. baum. CIP-105742
[19] = CIP104298, reference strain, read-out: MIC K. pneum. CIP-104298

Compound | MIC [1, 6] | MIC (K. pneum. R-1525; [7]) | MIC (E. cloacae ATCC BAA-2468; [8]) | MIC (E. coli LM705) | MIC (A. baum. R835; [9]) | MIC (E. coli ATCC-25922; [10]) | MIC (A. baum. CIP-107292; [11]) | MIC (A. baum. ATCC BAA-1710; [12]) | MIC (K. pneum. KP10581; [13]) | MIC (S. aur. ATCC-29213; [14]) | MIC (E. ae. CIP 106754) | T1/2 PLASMA (H) [2] | T1/2 PLASMA (M) [2] | T1/2 MICROSOMES (M) [3] | T1/2 MICROSOMES (M) [4] | MIC (E. faec. DSM-17050 (VRE); [15]) | MIC (P. ae. PA14; [16]) | MIC (A. baum. DSM-30008; [17]) | MIC (A. baum. CIP-105742; [18]) | MIC (P. ae. PA14ΔmexAB) | also measured
C#CC[C@H](NC(=O)c1ccc(NC(=O)c2ccc(C#N)cc2)cc1)C(=O)Nc1ccc(C(=O)Nc2ccc(C(=O)Nc3ccc(C(=O)O)cc3)c(N)c2OC(C)C)cc1 [Cmpd. 7] | 0.2 mg/L (≈ 0.253 µM) | > 64 mg/L | > 64 mg/L | > 64 mg/L | > 64 mg/L | 0.005 mg/L (≈ 0.00631 µM) | > 64 mg/L | > 64 mg/L | > 64 mg/L | > 64 mg/L | > 64 mg/L | > 4 h | > 4 h | > 1 h | > 1 h | > 64 mg/L | – | – | – | – | –
C#CC[C@H](NC(=O)c1ccc(NC(=O)c2ccc(C#N)cc2)cc1)C(=O)Nc1ccc(C(=O)Nc2ccc(C(=O)Nc3ccc(C(=O)O)cc3)c(O)c2CC(C)C)cc1 [Cmpd. 11] | > 64 mg/L | > 64 mg/L | > 64 mg/L | > 64 mg/L | > 64 mg/L | < 0.03 mg/L | > 64 mg/L | 0.25 mg/L (≈ 0.316 µM) | 8 mg/L (≈ 10.1 µM) | 16 to 32 mg/L (≈ 20.2 to 40.5 µM) | > 64 mg/L | > 4 h | > 4 h | > 1 h | > 1 h | < 0.03 mg/L | > 64 mg/L | 1 mg/L (≈ 1.26 µM) | < 0.03 mg/L | > 64 mg/L | MIC (K. pneum. CIP-104298; [19]): > 64 mg/L
C#CC[C@H](NC(=O)c1ccc(NC(=O)c2ccc(C#N)cc2)cc1)C(=O)Nc1ccc(C(=O)Nc2ccc(C(=O)Nc3ccc(C(=O)O)cc3)c(F)c2OC(C)C)cc1 [Cmpd. 4] | > 64 mg/L | > 64 mg/L | > 64 mg/L | > 64 mg/L | > 8 mg/L | 4 mg/L (≈ 5.03 µM) | > 8 mg/L | > 8 mg/L | > 64 mg/L | > 64 mg/L | > 64 mg/L | > 4 h | > 4 h | > 1 h | > 1 h | 4 mg/L (≈ 5.03 µM) | > 64 mg/L | 0.06 mg/L (≈ 0.0755 µM) | 0.25 to 0.5 mg/L (≈ 0.315 to 0.629 µM) | > 64 mg/L | MIC (K. pneum. CIP-104298; [19]): > 64 mg/L
C#CC[C@H](NC(=O)c1ccc(NC(=O)c2ccc(C#N)cc2)cc1)C(=O)Nc1ccc(NC(=O)c2ccc(C(=O)Nc3ccc(C(=O)O)cc3)c(O)c2OC(C)C)cc1 [Cmpd. 42] | – | – | – | 0.06 mg/L (≈ 0.0757 µM) | – | – | – | – | – | – | 1 mg/L (≈ 1.26 µM) | > 4 h | > 4 h | > 1 h | > 1 h | – | – | – | – | < 0.03 mg/L | MIC (P. ae. PA14; PA14, read-out: MIC P. ae. PA14): 4 mg/L (≈ 5.05 µM); MIC ([1]; Streptococcus pneumoniae, read-out: MIC S. pneum. DSM-11865 (PRSP)): < 0.03 mg/L; MIC (K. pneum. R-1525; Klebsiella pneumoniae, read-out: MIC K. pneum. R-1525): < 0.03 mg/L; MIC (E. cloacae ATCC BAA-2468; Enterobacter cloacae, ATCCBAA2468, read-out: MIC E. cloacae ATCC BAA-2468): 0.25 mg/L (≈ 0.315 µM); MIC (A. baum. DSM-30008; DSM30008, read-out: MIC A. baum. DSM-30008): 0.125 mg/L (≈ 0.158 µM); MIC (A. baum. R835; Acinetobacter baumannii, read-out: MIC A. baum. R835): 0.5 mg/L (≈ 0.631 µM); MIC (E. coli ATCC-25922; ATCC25922, read-out: MIC E. coli ATCC-25922): < 0.03 mg/L; MIC (A. baum. CIP-107292; Acinetobacter baumannii, CIP107292, read-out: MIC A. baum. CIP-107292): 0.05 mg/L (≈ 0.0631 µM); MIC (A. baum. ATCC BAA-1710; Acinetobacter baumannii, ATCCBAA1710, read-out: MIC A. baum. ATCC BAA-1710): 0.03 to 0.05 mg/L (≈ 0.0378 to 0.0631 µM); MIC (K. pneum. KP10581; Klebsiella pneumoniae, read-out: MIC K. pneum. KP10581): < 0.03 mg/L; MIC (A. baum. CIP-105742; Acinetobacter baumannii, CIP105742, read-out: MIC A. baum. CIP-105742): < 0.03 mg/L; MIC (K. pneum. CIP-104298; CIP104298, read-out: MIC K. pneum. CIP-104298): < 0.03 mg/L; MIC (S. aur. ATCC-29213; ATCC29213, read-out: MIC S. aur. ATCC-29213): 0.06 mg/L (≈ 0.0757 µM); clearance ([5]; CD-1, mouse, iv, 1 mg/kg): 1.07 ± 0.738 L/h/kg; C0 ([5]; CD-1, mouse, iv, 1 mg/kg, concentration at t = 0 h, CD-1 mice, 1 mg/kg IV): ~2.2 µg/mL; Vd ([5]; CD-1, mouse, iv, 1 mg/kg, volume of distribution, CD-1 mice, 1 mg/kg IV, read-out: Vz): ~1.4 L/kg; AUC(0-t) ([5]; mouse, CD-1 mice, 1 mg/kg IV): 1.21 ± 0.832 µg·h/mL; half-life ([5]; mouse, CD-1 mice, 1 mg/kg IV): 0.88 ± 0.1 h; antibacterial activity on the pathogen panel, in words (ESKAPE strains): exceptional activity; MIC (E. faec. DSM-17050 (VRE); Enterococcus, read-out: MIC E. faec. DSM-17050 (VRE)): < 0.03 mg/L
